Data published in patent publication US12280148B2, “Composition for promoting extracellular vesicle production containing peptide derived from noxa protein and method for producing extracellular vesicles by using same” (Exocalibre Therapeutics Co., Ltd., priority 2020, dated 2025).

Experiments:
Assay type in all cases: cell-based, human
HeLa cell line [1] = experiment: Production of extracellular vesicles, observed by optical microscope (bright field); conditions: solution of Example 1 (250 mM sucrose), peptide final concentration 20 μM, after 10 minutes
Procedure: After the HeLa cell line was cultured in a 6-well plate, the culture was removed, and then the HeLa cell line was treated with the solution in Example 1.
The control group was not treated with any peptide, and the experiment group was treated with eMTDΔ4 peptide of SEQ ID NO: 2 (final concentration: 20 μM). After 10 minutes, the generation of extracellular vesicles was observed by an optical microscope (bright field), and the observation results are shown in FIG. 1.
Extracellular vesicle production was carried out by the experimental method of Experimental Example 2-1 using the R(8):MTD peptide of SEQ ID NO: 4 and the solutions of Example 1 and Comparative Examples 1 to 18, and the results are shown in FIGS. 2A to 2S.
Extracellular vesicle production was carried out by the experimental method of Example 2-1 using the R(8):MTD peptide of SEQ ID NO: 4 and the solutions of Examples 1 to 3 on Table 3, and the results are shown in FIGS. 3A to 3C.

HeLa cell line [2] = experiment: Extracellular vesicle morphology, EGFP-HSP90 transfected cells, confocal microscope; conditions: HeLa transfected with pEGFP-HSP90; solution of Example 1; 20 μM; after 10 minutes
Procedure: In order to transfect the HSP90 protein, an exosome indicator, into the HeLa cell line, the HeLa cell line was cultured overnight in a 6-well plate, and then treated with a plasmid into which Effectene and pEGFP-HSP90 were cloned, and after 4 hours, the culture was replaced.
The next day, the culture was removed from the HeLa cell line, and the solution of Example 1 was added. A control group was not treated with any peptide, and an experiment group was treated with the eMTDΔ4 peptide of SEQ ID NO: 2 (final concentration: 20 μM). The HSP90 protein was excited using an argon laser of 488 nm. After 10 minutes, the control group and the experiment group were observed using a confocal microscope (Leica TCS SP5 Microsystems), and the results are shown in FIG. 4.

HeLa cell line [3] = experiment: Extracellular vesicle production, mEmerald-CD9 / mCherry-CD81 transfected cells, confocal imaging every 2 seconds; conditions: solution of Example 1, 20 μM
Procedure: The HeLa cell line was cultured in a 12-well plate overnight, and in order to identify the CD9 protein, an extracellular vesicle indicator, the HeLa cell line was treated with a plasmid into which Effectene and mEmerald-CD9 were cloned, and after 4 hours, the culture was replaced.
The next day, the culture was removed from the HeLa cell line, and the HeLa cell line was treated with the solution of Example 1. After each HeLa cell line was treated with the eMTDΔ4 peptide (final concentration: 20 μM), a laser having a wavelength of 488 nm was used to excite mEmerald-CD9.
In order to identify the CD81 protein, an extracellular vesicle indicator, the same procedure as in the method for observing the CD9 protein was performed except that the HeLa cells were treated with a plasmid into which mCherry-CD81 instead of mEmerald-CD9 was cloned and mCherry-CD81 was excited using a laser having a wavelength of 561 nm, and the results are shown in FIG. 5B.

293-HEK cell line [4] = experiment: Extracellular vesicle output quantified by Bradford solution
Procedure: The 293-HEK cell line was cultured in a 6-well plate at a rate of 2×10^5 cells/mL, and the next day, the cell line was treated with the solution of Example 1 and a peptide of any one of SEQ ID NOs: 1 to 21. […], the solution was removed, followed by centrifugation at an RCF of 12000, and the extracellular vesicles were quantified using the supernatant by Bradford solution.

293-HEK cell line [5] = experiment: Extracellular vesicle size and quantity by Nanoparticle Tracking Analysis (NTA); conditions: 50-fold diluted, solution of Example 1, peptide 20 μm, after 20 minutes
Procedure: After the 293-HEK cell line was cultured to 90% confluency (about 2×10^7 cells) in a 10-cm culture dish, the culture was removed, and the cells were treated with the eMTDΔ4 peptide (final concentration: 20 μm), which has been dissolved in 5 ml of the solution of Example 1. After 20 minutes, the solution was removed, followed by centrifugation at an RCF of 12000, and then the size and quantity of extracellular vesicles were measured using a Nanoparticle Tracking Analysis (NTA) system (Nanosight LM10, Malvern Instruments).

293-HEK cell line [6] = experiment: Loading of recombinant TRAIL protein in extracellular vesicles, SDS-acrylamide gel; conditions: Recombinant TRAIL + (2 μg/ml), Peptide + (25 μM), solution of Example 1
Procedure: After the 293-HEK cell line was cultured to 90% confluency in a 6-well plate, the culture was removed, and the cell line was treated with the eMTDΔ4 peptide (final concentration: 25 μM) and the recombinant TRAIL, which have been dissolved to concentrations of 25 μM and 2 μg/ml in the solution of Example 1, respectively. The supernatant was collected, and PEG (final concentration: 8%) was added, followed by centrifugation at an RCF of 12000 for 10 minutes, thereby settling extracellular vesicles, and the extracellular vesicles were loaded on the SDS-acrylamide gel to check the TRAIL protein.

293-HEK cell line [7] = experiment: Loading of plasmid DNA in extracellular vesicles, agarose gel electrophoresis; conditions: peptide 25 μM, PUC19 3 μg/ml, EGFP-C1 6 μg/ml, solution of Example 1
Procedure: After the 293-HEK cell line was cultured to 90% confluency in a 6-well plate, the culture was removed, and the cell line was treated with the eMTDΔ4 peptide (final concentration: 25 μM) and plasmid DNA (PUC19 3 μg/ml, EGFP-C1 6 μg/ml), which have been dissolved in the solution of Example 1.
1.15 ml of the supernatant was collected and 0.35 ml of Qiagen buffer P3 was added, thereby making a total volume of 1.5 ml, of which 0.75 ml was then passed through the DNA miniprep column (Qiagen), and the passed solution was purified with phenol and precipitated with ethanol.
After 30 μl of DNA bound to the column and 30 μl of DNA precipitated with ethanol were dissolved in water, 10 μl of DNA bound to the column and 10 μl of DNA precipitated with ethanol were subjected to agarose gel electrophoresis, and then stained with EtBr.

HeLa cell line [8] = experiment: Loading of doxorubicin in extracellular vesicles, confocal microscope; conditions: HeLa expressing EGFP-HSP90; peptide 25 μM; doxorubicin 100 μM; solution of Example 1; after 10 minutes
Procedure: Doxorubicin, which is a drug passing through cell membranes well, is used to treat cancers, such as breast cancer, bladder cancer, Kaposi's sarcoma, lymphoma, or acute lymphoblastic leukemia. First, the HeLa cell line was cultured in a 12-well plate overnight, then transfected with a plasmid expressing EGFP-HSP90 using effectene, and then the culture was replaced after 4 hours. The next day, the culture was removed from the HeLa cell line to prepare a cell line.
(§1) The control group was treated with only doxorubicin without any peptide, and the experiment group was treated with the eMTDΔ4 peptide (final concentration: 25 μM) and doxorubicin (final concentration: 100 μM), which have been dissolved in the solution of Example 1, and then after 10 minutes, the groups were observed by a confocal microscope.

HeLa cell line [9] = experiment: Loading of propidium iodide (PI) in extracellular vesicles, confocal microscope; conditions: HeLa transfected with HSP90; peptide 25 μM; 5 μg/ml PI; solution of Example 1; after 10 minutes
Procedure: Propidium iodide (PI), which is a drug poorly passing through cell membranes, is a fluorescent substance capable of being used to stain cells. First, the HSP90 protein was transfected into the HeLa cell line to prepare a cell line.
as §1, with “PI” for “doxorubicin”, “5 μg/ml PI,” for “doxorubicin (final concentration: 100 μM),”, “been in combination” for “been”

KLNFRQKLLNLISKLF (eMTDdelta4) [eMTDΔ4, Noxa protein-derived peptide, 16aa]
generation of extracellular vesicles (HeLa cell line [1]): small extracellular vesicle particles were formed and settled on the bottom of the plate | cell morphology (HeLa cell line [2]): the cell morphology was damaged | extracellular vesicles containing HSP90 protein (HeLa cell line [2]): extracellular vesicles containing the HSP90 protein were settled on the bottom of the plate | time to release of extracellular vesicles to the extracellular matrix (HeLa cell line [3]): within a few seconds after generation | release of CD9 and CD81 proteins (extracellular vesicle indicators) (HeLa cell line [3]; observed for 10 minutes): CD9 and CD81 proteins were released into the extracellular matrix | Amount of proteins contained in extracellular vesicles (293-HEK cell line [4]; solution of Example 1, peptide 10 μM): 4.93 µg/µL | Amount of proteins contained in extracellular vesicles (293-HEK cell line [4]; solution of Example 1, peptide 20 μM): 6.40 µg/µL | Amount of proteins contained in extracellular vesicles (293-HEK cell line [4]; solution of Example 1, peptide 40 μM): 7.56 µg/µL | Quantity of extracellular vesicles (293-HEK cell line [5]): 7.44e+08 ± 6.51e+07 mL⁻¹ | Protein detected or not (TRAIL in extracellular vesicles) (293-HEK cell line [6]): ◯ | loading of plasmid DNA in extracellular vesicles (293-HEK cell line [7]): can be loaded in the extracellular vesicles | loading of doxorubicin in extracellular vesicles (HeLa cell line [8]): the generated extracellular vesicles contained doxorubicin as well as the HSP90 protein | loading of propidium iodide (PI) in extracellular vesicles (HeLa cell line [9]): the generated extracellular vesicles contained PI as well as the HSP90 protein
